According to patent US12059425B2, “Heterocyclic compounds and uses thereof” (Kumquat Biosciences Inc., priority 2022, dated 2024):

How the values were obtained:
[1] = molecular target: T1, K-Ras G12D (Homo sapiens, UniProt P01116, G12D); test: PPI-HTRF assay, K-Ras G12D / SOS1 interaction; assay type: biochemical; conditions: HTRF, K-Ras G12D; read-out: PPI-HTRF-5 nM (K-Ras G12D IC50)
T1 construct: made in house; host or cells: E. coli, e.g. BL21 (DE3)
Summary of the method: (§1)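 Compound in DMSO is dispensed first, then GST-K-Ras plus anti-GST-Eu(K), then His-hSOS1 plus anti-6His-XL665. Plates incubate about 10 min or longer before HTRF measurement at 620 and 665 nm. IC50 values are derived from the emission ratio for each K-Ras variant.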

[2] = molecular target: T2, K-Ras G12S (Homo sapiens, UniProt P01116, G12S); test: PPI-HTRF assay, K-Ras G12S / SOS1 interaction; assay type: biochemical; conditions: read-out: PPI-HTRF-5 nM (K-Ras G12S IC50)
T2 construct: made in house; host or cells: E. coli, e.g. BL21 (DE3)
Summary of the method: as §1

[3] = molecular target: T3, K-Ras G12V (Homo sapiens, UniProt P01116, G12V); test: PPI-HTRF assay, K-Ras G12V / SOS1 interaction; assay type: biochemical; conditions: HTRF, K-Ras G12V; read-out: PPI-HTRF-5 nM (K-Ras G12V IC50)
T3 construct: made in house; host or cells: E. coli, e.g. BL21 (DE3)
Summary of the method: as §1

[4] = molecular target: T4, wildtype K-Ras (Homo sapiens, UniProt P01116); test: PPI-HTRF assay, wildtype K-Ras / SOS1 interaction; assay type: biochemical; conditions: HTRF, K-Ras wt; read-out: PPI-HTRF-5 nM (K-Ras wt IC50)
T4 construct: made in house; host or cells: E. coli, e.g. BL21 (DE3)
Summary of the method: as §1

[5] = tested on: GP2D cells; test: Ras cellular assay, cell proliferation GP2D; assay type: cell-based
Summary of the method: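 Growth inhibition read by CellTiter-Glo luminescence roughly 5 days after compound addition, which followed overnight plating of G12D-mutant GP2D cells (e.g., 800 per well). Compounds were tested as a serial dilution (e.g., 9 points, 3-fold), with IC50 fitted by four-parameter model.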

[6] = tested on: A549 cells; test: Ras cellular assay, cell proliferation A549; assay type: cell-based; conditions: Homo sapiens
Summary of the method: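 G12S-mutant A549 cells (800/well) in RPMI-1640 plus 10% heat-inactivated FBS, standard or ultra-low attachment 384-well plates, dosed the day after plating with a 10-point 3-fold series. Viability by CellTiter-Glo luminescence about 6 days later; IC50 from four-parameter fit.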

[7] = tested on: SW620 cells; test: Ras cellular assay, cell proliferation SW620; assay type: cell-based; conditions: Homo sapiens, SW-620
Source text: For example, this assay can be also used to assess selective growth inhibition of a mutant Ras protein relative to a wildtype, or relative to a different mutant Ras protein.

Measured: IC50

T2 sequence (P01116 1-188 isoform P01116-2 G12S): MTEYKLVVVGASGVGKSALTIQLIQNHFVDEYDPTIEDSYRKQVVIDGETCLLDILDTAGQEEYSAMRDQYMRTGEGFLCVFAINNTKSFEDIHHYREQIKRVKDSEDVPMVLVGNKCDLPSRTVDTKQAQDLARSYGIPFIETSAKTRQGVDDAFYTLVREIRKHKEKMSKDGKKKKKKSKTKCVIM
T4 sequence (P01116 1-188 isoform P01116-2): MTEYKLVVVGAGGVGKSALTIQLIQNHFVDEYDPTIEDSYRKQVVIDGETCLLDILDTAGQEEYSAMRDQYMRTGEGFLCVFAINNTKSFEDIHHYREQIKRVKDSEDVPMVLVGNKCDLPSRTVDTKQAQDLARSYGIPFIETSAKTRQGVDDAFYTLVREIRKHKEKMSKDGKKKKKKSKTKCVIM
T3 sequence (P01116 1-188 isoform P01116-2 G12V): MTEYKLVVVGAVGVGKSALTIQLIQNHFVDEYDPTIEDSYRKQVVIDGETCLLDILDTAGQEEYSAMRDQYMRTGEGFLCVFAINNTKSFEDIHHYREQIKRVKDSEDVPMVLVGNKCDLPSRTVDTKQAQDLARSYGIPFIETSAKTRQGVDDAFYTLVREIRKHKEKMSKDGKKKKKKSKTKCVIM
T1 sequence (P01116 1-188 isoform P01116-2 G12D): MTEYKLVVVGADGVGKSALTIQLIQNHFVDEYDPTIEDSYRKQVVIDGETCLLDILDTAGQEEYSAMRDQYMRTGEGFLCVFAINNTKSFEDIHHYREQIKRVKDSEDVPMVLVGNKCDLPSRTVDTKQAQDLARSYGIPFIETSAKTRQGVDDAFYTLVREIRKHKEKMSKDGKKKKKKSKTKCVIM

N#Cc1c(N)sc2c(F)ccc(-c3c(Cl)c4c5c(nc(OC[C@@]67CCCN6C[C@H](F)C7)nc5c3F)N3CCNCCC3CO4)c12 (stereo partly drawn) [compound 142, 2-amino-4-(6-chloro-4-fluoro-2-(((2R,7aS)-2-fluorotetrahydro-1H-pyrrolizin-7a(5H)-yl)methoxy)-8a,9,10,11,12,13-hexahydro-8H-[1,4]diazepino[7′,1′:3,4][1,4]oxazepino [5,6,7-de]quinazolin-5-yl)-7-fluorobenzo[b]thiophene-3-carbonitrile]
< 5 µM: all assays above
